According to ChEMBL document CHEMBL3132769, “Fragment growing to retain or alter the selectivity of anchored kinase hinge-binding fragments” (Medchemcomm, 2014):

Experiments:
[1] = molecular target: Protein kinase C delta type (Homo sapiens) (UniProt Q05655); test: Inhibition of human truncated PKC delta expressed in baculovirus assessed as substrate phosphorylation using fluorescence-labelled peptides as substrate at 0.06 uM after 90 mins by microfluidic peptide phosphorylation assay
[2] = molecular target: T1, Protein kinase C zeta type (Homo sapiens) (UniProt Q05513); test: Inhibition of human full length PKC zeta expressed in baculovirus assessed as substrate phosphorylation using fluorescence-labelled peptides as substrate at 70 uM after 90 mins by microfluidic peptide phosphorylation assay
T1 sequence (whole entry): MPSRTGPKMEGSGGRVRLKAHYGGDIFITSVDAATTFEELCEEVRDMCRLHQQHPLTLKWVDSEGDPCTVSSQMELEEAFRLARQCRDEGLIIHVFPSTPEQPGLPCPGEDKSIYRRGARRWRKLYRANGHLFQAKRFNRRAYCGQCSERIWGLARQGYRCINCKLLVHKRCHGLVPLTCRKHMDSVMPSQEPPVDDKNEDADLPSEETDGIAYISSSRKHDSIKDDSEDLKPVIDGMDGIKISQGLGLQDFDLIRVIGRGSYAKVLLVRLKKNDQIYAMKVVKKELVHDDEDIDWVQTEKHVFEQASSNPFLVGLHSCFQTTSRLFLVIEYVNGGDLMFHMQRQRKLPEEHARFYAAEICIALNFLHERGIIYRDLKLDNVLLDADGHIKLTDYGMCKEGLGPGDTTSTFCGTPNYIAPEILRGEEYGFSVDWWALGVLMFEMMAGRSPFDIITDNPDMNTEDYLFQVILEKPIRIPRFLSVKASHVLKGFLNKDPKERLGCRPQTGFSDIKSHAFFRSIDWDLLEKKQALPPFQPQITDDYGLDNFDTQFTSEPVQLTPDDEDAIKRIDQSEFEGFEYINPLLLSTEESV

[3] = molecular target: Calcium/calmodulin-dependent protein kinase type II subunit delta (Homo sapiens) (UniProt Q13557); test: Inhibition of human full length CAMK2D expressed in baculovirus assessed as substrate phosphorylation using fluorescence-labelled peptides as substrate at 70 uM after 90 mins by microfluidic peptide phosphorylation assay
[4] = molecular target: Tyrosine-protein kinase Fyn (Homo sapiens) (UniProt P06241); test: Inhibition of human full length FYN expressed in baculovirus assessed as substrate phosphorylation using fluorescence-labelled peptides as substrate at 0.2 uM after 90 mins by microfluidic peptide phosphorylation assay
[5] = molecular target: T1, Protein kinase C zeta type (Homo sapiens); test: Inhibition of human full length PKC zeta expressed in baculovirus assessed as substrate phosphorylation using fluorescence-labelled peptides as substrate at 0.2 uM after 90 mins by microfluidic peptide phosphorylation assay
[6] = molecular target: Mitogen-activated protein kinase 1 (Homo sapiens) (UniProt P28482); test: Inhibition of human full length ERK2 expressed in Escherichia coli cell assessed as substrate phosphorylation using fluorescence-labelled peptides as substrate at 9 uM after 90 mins by microfluidic peptide phosphorylation assay
[7] = molecular target: T2, Mitogen-activated protein kinase 12 (Homo sapiens) (UniProt P53778); test: Inhibition of human full length p38 gamma expressed in Escherichia coli cell assessed as substrate phosphorylation using fluorescence-labelled peptides as substrate at 2 uM after 90 mins by microfluidic peptide phosphorylation assay
T2 sequence (whole entry): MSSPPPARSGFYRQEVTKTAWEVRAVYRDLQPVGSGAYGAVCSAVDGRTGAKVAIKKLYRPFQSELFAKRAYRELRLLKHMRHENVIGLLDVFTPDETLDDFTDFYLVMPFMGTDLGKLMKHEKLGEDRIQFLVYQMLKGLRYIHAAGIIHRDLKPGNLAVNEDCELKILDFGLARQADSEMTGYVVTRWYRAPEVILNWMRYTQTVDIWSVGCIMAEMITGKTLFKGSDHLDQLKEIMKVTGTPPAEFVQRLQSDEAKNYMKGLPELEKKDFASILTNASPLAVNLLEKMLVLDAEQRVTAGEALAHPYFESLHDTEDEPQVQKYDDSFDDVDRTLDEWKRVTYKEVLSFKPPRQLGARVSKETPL

[8] = molecular target: T3, Mitogen-activated protein kinase 13 (Homo sapiens) (UniProt O15264); test: Inhibition of human full length p38 delta expressed in Escherichia coli cell assessed as substrate phosphorylation using fluorescence-labelled peptides as substrate at 2 uM after 90 mins by microfluidic peptide phosphorylation assay
T3 sequence (whole entry): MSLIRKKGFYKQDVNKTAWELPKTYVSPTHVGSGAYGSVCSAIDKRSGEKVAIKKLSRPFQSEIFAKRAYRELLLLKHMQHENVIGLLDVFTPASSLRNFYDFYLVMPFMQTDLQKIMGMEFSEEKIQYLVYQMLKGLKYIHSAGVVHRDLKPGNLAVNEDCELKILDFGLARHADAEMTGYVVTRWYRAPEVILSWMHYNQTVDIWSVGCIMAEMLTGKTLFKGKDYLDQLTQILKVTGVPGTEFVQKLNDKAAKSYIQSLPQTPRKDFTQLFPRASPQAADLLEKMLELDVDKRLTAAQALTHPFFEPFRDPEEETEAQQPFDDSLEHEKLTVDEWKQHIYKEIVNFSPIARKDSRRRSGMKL

[9] = molecular target: Cyclin-dependent kinase 2 (Homo sapiens) (UniProt P24941); test: Inhibition of human full length CDK2 expressed in baculovirus assessed as substrate phosphorylation using fluorescence-labelled peptides as substrate at 8 uM after 90 mins by microfluidic peptide phosphorylation assay
[10] = molecular target: Calcium/calmodulin-dependent protein kinase type II subunit gamma (Homo sapiens) (UniProt Q13555); conditions: 0.1 uM
Description: Inhibition of human CAMK2 gamma catalytic domain expressed in baculovirus assessed as substrate phosphorylation using fluorescence-labelled peptides as substrate at 0.1 uM after 90 mins by microfluidic peptide phosphorylation assay

[11] = molecular target: Protein kinase C eta type (Homo sapiens) (UniProt P24723); conditions: 0.1 uM
Sequence of Protein kinase C eta type (Homo sapiens) (P24723 whole entry): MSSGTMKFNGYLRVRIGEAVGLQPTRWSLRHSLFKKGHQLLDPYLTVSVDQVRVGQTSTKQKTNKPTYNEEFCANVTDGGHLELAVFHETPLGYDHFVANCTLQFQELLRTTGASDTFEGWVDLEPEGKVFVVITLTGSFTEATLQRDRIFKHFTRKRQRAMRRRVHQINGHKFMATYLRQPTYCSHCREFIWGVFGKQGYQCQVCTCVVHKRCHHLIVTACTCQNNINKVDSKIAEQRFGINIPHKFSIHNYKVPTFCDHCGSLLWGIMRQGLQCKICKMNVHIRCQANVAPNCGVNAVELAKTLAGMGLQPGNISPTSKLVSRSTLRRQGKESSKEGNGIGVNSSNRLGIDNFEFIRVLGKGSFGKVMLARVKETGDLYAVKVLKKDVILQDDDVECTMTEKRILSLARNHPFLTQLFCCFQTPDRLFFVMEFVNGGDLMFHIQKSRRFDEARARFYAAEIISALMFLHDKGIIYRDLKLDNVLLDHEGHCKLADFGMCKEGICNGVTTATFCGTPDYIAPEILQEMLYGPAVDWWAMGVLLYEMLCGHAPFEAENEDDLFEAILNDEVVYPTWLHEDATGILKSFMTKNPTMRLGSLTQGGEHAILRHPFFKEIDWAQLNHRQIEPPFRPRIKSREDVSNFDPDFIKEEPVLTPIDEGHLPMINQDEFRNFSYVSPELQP
Description: Inhibition of human truncated PKC eta expressed in baculovirus assessed as substrate phosphorylation using fluorescence-labelled peptides as substrate at 0.1 uM after 90 mins by microfluidic peptide phosphorylation assay

Sequence of Calcium/calmodulin-dependent protein kinase type II subunit gamma (Homo sapiens) (Q13555 whole entry): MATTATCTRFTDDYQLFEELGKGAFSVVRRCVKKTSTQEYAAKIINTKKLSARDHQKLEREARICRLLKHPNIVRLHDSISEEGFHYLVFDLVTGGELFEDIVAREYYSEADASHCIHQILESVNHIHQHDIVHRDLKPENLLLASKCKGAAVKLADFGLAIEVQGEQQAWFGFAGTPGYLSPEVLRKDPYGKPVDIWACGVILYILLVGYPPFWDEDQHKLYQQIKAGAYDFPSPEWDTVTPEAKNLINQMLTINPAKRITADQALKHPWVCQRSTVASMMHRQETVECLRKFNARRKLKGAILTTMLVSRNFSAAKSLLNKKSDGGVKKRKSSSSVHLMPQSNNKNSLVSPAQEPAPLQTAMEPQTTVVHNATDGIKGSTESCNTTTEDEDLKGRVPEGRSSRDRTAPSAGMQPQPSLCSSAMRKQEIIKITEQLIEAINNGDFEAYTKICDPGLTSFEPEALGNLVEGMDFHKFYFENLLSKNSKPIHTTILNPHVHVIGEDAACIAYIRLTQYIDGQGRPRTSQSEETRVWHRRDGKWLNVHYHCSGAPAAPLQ
Sequence of Tyrosine-protein kinase Fyn (Homo sapiens) (P06241 2-537 limits assumed): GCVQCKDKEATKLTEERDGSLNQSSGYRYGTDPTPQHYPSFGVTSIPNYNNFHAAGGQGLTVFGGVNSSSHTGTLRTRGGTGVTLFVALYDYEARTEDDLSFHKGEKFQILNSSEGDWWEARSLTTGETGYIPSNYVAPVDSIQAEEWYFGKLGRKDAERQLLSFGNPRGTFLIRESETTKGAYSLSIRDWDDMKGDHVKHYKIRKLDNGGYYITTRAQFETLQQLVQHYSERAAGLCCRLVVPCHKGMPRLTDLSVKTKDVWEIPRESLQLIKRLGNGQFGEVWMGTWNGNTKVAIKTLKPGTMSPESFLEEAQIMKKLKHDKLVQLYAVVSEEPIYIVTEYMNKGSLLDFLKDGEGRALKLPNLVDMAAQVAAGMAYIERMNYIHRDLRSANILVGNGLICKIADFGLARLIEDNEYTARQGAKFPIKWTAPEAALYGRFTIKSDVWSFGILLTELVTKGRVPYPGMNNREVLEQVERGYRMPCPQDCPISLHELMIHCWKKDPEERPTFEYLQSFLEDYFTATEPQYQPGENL
Sequence of Protein kinase C delta type (Homo sapiens) (Q05655 whole entry, looked up, the tested form may be a part): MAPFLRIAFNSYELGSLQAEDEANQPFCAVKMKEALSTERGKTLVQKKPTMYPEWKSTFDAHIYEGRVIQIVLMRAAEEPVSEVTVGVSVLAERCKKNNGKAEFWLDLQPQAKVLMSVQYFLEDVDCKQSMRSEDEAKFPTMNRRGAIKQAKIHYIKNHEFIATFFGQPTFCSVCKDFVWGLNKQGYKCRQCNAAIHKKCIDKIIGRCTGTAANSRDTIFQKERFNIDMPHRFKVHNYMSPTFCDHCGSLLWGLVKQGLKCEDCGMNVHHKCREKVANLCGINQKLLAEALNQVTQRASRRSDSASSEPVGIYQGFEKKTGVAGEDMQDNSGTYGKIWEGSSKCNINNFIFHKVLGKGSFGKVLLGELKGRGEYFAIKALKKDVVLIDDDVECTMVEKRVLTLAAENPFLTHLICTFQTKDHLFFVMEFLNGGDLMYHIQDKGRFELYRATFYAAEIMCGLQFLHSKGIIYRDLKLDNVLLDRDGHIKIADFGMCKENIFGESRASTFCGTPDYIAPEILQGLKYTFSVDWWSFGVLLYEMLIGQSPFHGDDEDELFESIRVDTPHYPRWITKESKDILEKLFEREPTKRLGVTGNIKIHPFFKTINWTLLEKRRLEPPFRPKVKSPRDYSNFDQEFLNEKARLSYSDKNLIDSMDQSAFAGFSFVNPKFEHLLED
Sequence of Mitogen-activated protein kinase 1 (Homo sapiens) (P28482 whole entry): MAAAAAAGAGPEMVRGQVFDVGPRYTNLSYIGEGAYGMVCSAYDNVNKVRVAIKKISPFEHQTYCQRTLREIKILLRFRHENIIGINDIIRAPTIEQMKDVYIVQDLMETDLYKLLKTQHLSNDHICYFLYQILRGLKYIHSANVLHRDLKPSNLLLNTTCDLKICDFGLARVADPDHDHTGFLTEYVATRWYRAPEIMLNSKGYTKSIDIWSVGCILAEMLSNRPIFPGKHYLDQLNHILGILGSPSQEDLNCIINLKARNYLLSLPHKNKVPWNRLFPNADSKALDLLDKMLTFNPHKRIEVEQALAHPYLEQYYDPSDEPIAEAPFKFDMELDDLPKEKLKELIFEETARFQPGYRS
Sequence of Calcium/calmodulin-dependent protein kinase type II subunit delta (Homo sapiens) (Q13557 whole entry): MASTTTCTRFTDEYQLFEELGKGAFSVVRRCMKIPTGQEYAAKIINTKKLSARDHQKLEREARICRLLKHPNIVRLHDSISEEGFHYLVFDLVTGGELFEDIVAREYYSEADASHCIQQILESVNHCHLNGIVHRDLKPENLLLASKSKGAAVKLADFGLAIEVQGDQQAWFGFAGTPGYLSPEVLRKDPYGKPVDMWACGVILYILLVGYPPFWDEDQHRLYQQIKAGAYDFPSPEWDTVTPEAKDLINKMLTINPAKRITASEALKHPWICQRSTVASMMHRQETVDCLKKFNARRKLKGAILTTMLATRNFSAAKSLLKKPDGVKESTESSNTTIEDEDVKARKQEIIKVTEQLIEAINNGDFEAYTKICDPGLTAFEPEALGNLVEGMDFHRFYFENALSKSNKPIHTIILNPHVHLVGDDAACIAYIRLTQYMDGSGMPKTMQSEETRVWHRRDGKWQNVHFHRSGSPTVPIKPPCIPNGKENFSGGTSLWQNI

NC1(Cc2ccc(Cl)cc2)CCN(c2ncnc3[nH]ccc23)CC1
inhibition [1]: 2%

CNCc1ccc(-c2ncnc3[nH]cnc23)cc1
inhibition [2]: 0%
inhibition [3]: 17.5%

Clc1ccc(C2(c3ccc(-c4ncnc5[nH]cnc45)cc3)CCNCC2)cc1
inhibition [4]: 16%
inhibition [5]: 1%

NCC1CN(c2ncnc3[nH]c4cnccc4c23)CCO1 (stereo unspecified)
inhibition [6]: 1.5%

NC1CCN(c2ncnc3[nH]ccc23)CC1
inhibition [7]: 1.5%
inhibition [8]: 8%

NCC1CCN(c2ncnc3[nH]ccc23)CC1
inhibition [9]: 7%

C[C@H](CN(C)C)Oc1nc(Nc2cc3cccc(Cl)c3cn2)cnc1C#N
inhibition [10]: 0%
inhibition [11]: 0%
